The values below come from PMC9696254, “Discovery of p-Terphenyl Metabolites as Potential Phosphodiesterase PDE4D Inhibitors from the Coral-Associated Fungus Aspergillus sp. ITBBc1” (Marine Drugs, 2022).

What is called IC50 is the point on the concentration scale where inhibition reaches its midpoint.

This test concerns the target PDE4D (Homo sapiens, UniProt Q08499). The experiment in a line: in vitro PDE4D inhibition assay, liquid scintillation counting, three independent experiments. The format is biochemical.

PDE4D, sequence (Q08499 whole entry): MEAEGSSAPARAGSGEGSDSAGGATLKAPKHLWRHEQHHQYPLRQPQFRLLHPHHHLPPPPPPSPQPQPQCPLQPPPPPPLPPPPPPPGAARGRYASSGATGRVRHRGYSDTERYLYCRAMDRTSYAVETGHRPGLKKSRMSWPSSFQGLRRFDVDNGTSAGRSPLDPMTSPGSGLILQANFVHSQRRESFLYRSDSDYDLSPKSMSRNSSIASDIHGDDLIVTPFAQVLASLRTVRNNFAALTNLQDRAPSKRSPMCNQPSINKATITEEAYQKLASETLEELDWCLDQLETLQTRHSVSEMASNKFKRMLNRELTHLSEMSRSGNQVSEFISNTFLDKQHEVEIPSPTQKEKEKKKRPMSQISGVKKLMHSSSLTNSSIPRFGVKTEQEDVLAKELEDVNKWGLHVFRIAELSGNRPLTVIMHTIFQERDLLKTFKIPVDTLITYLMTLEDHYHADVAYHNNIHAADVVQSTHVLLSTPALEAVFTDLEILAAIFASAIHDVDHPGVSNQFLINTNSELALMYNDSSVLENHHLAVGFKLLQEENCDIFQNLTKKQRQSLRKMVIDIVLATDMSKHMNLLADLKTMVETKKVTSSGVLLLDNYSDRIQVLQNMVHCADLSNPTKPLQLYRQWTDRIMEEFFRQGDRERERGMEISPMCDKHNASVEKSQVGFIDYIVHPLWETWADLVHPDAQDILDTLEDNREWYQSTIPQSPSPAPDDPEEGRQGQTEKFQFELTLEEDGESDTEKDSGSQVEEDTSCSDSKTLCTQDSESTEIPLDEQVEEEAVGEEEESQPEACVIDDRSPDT

`COc1cc(-c2ccccc2)c(OC)c(O)c1-c1ccc2c(c1)C=CC(C)(C)O2` [compound 3, Sanshamycin C] yielded a 50% inhibitory concentration (IC50) of 5.54 ± 0.24 µM.
